Test results from ChEMBL document CHEMBL1127793 (J Med Chem, 1994).
The source made the active and inactive calls. The rule behind the calls is not given here.

Assays:
[1] = species on record: Cavia porcellus; assay: Tested for the inhibitory activity against neutrophil infiltration in response to LTB4 in guinea pig; type: functional
[2] = species on record: Homo sapiens; assay: Tested for inhibitory activity against LTB4 induced chemotaxis of human neutrophils; type: functional
[3] = species on record: Homo sapiens; assay: Tested for inhibitory activity against LTB4 induced up-regulation of CD11b on human neutrophils; type: functional
[4] = target: Leukotriene B4 receptor 1 (Mus musculus, UniProt O88855); assay: Tested for antagonistic activity in mouse spleen membrane against LTB4 receptor; type: functional, cell membranes
Sequence of Leukotriene B4 receptor 1 (O88855 whole entry): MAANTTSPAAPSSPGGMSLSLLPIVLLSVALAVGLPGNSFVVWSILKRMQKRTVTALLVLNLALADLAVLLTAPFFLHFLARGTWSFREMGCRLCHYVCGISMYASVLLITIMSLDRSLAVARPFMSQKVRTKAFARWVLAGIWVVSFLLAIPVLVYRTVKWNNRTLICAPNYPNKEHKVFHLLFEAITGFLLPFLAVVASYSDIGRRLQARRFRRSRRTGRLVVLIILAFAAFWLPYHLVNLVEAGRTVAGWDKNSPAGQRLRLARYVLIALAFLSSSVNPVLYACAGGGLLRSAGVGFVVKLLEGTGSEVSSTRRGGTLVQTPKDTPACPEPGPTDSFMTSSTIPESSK

[5] = tested on: Mus musculus; assay: Oral administration of compound in 0.5% methyl cellulose inhibits the LTB4-induced response; type: functional
[6] = target: T1, Prostaglandin G/H synthase 2 (Ovis aries) (UniProt P79208); assay: Tested for inhibition of the Prostaglandin G/H synthase at 10 uM conc.; No inhibition
T1 sequence (whole entry): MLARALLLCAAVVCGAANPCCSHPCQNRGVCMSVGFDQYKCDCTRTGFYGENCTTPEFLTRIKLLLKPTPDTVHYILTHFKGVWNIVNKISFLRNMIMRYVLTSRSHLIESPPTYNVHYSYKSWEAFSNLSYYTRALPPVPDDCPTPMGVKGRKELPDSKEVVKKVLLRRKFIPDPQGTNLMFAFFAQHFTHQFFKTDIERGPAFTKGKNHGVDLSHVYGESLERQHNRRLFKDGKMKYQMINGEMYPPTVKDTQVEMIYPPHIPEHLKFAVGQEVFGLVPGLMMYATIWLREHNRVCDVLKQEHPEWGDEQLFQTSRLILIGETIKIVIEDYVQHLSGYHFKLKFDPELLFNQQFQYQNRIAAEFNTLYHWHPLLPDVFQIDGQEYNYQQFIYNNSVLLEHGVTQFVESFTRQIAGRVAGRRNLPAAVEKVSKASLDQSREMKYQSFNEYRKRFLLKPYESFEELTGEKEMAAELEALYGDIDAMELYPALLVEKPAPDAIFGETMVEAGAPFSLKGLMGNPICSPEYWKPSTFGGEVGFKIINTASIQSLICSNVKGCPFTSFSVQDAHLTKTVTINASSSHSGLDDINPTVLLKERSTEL

SMILES: O=C(O)C1(c2ccc3c(c2)OC[C@H](Cc2ccc(-c4ccccc4)cc2)[C@H]3O)CCCC1
- ED50 [1]: 0.26 mg/kg
- IC50 [2]: 5.2 nM
- IC50 [3]: 430 nM
- IC50 [4]: 30.3 nM
- ED50 [5]: 4.2 mg/kg
- inhibition [6]: inactive
